Common to all, as to assay type: cell-based, human
In test [1] the test system is ZO-1, occludin, claudin 1, 4, 8, 12 mRNA in IC/PBS cells. As to the kind of experiment: qRT-PCR of tight junction protein mRNA in IC/PBS cells. The following applies: 16 or 30 day treatment. On the procedure: Total RNA was extracted from IC/PBS and normal control epithelial cell explants using the RNEasy Plus Mini Kit (Qiagen) according to the manufacturer's protocol. Quantitative real time RT-PCR for tight junction gene expression was performed using Quantitect Primers (Qiagen), SYBR Green RT-PCR kit reagents (Qiagen), and a Roche 480 Light-Cycler. Samples were tested in triplicate runs, and specific mRNA levels quantified and compared to mRNA levels for β-actin using LightCycler 480 real-time PCR analysis software (version 1.5).
For the permeability assay, the percentage of total counts in the basal medium was determined in four experiments (using different IC/PBS cell donors), and expressed as mean±standard deviation. Crossover point analysis was performed for qRT-PCR data, and expression of each gene was quantified relative to β-actin; this value was expressed as mean±standard error of the mean for duplicate runs performed on two separate occasions. ^3H-thymidine incorporation was determined in triplicate on two separate occasions, and the CPM expressed as mean±standard deviation.

Test [2] concerns APF activity in normal bladder epithelial cells. As to the kind of experiment: Inhibition of APF antiproliferative activity in as-APF-treated normal bladder epithelial cells (3H-thymidine). As to conditions: pretreatment, then as-APF (0.25 or 0.025 μM; 25 nM in FIG. 54), normal and/or IC/PBS bladder cells. As for the experimental part:
Explanted cells grown from the biopsies of normal controls were plated on Day 0 at 1.5×10^4 cells/well onto a 96-well cell culture plate (VWR 29442-054), in 150 μL/well MEM containing 10% heat-inactivated FBS, 1% antibiotic/antimycotic solution, and 1% L-glutamine (all from Sigma), serum starved on Day 1, and treated with varying concentrations of D-pipecolic acid diluted in phosphate buffered saline (PBS) for 2 hours at 37° C. in a 5% CO2 atmosphere. […] The cell contents were then harvested and methanol-fixed onto glass fiber filter paper, and the amount of radioactivity incorporated was determined. Significance of the difference in mean values between groups was determined by an analysis of variance.
IC/PBS cells were incubated with varying concentrations of two derivatives shown to inhibit APF activity in normal bladder cells—GalGalNAc-TV(D-pipecolic acid) AAVVVA (SEQ ID NO:14) and GalGalNAc-TV (D-proline)AAVVVA (SEQ ID NO:27). Cell proliferation was determined by ^3H-thymidine incorporation; gene expression by quantitative RT-PCR; specific protein expression by Western blot analysis; tight junction formation by confocal immunofluorescence microscopy; and paracellular permeability by ^14C-mannitol and ^3H-inulin flux between confluent cells on Transwell plates. Significance of the difference in mean values between groups was determined by an analysis of variance for each assay. […]

A further test concerns IC/PBS cell monolayers. The test can be described thus: Paracellular permeability (14C-mannitol and 3H-inulin flux, Transwell) of IC/PBS cell monolayers. The following applies: 16 or 30 days treatment. As for the experimental part: Flux assays were performed using 12-mm Transwell culture plates (Corning Incorporated, Corning, N.Y.), as previously described (Keay et al., 2000). Cells were plated at 4×10^5 cells/cm^2 on the insert and grown in DMEM-F12 medium containing 10% heat-inactivated FBS, 1% antibiotic solution, 1% L-glutamine, 0.25 units/ml insulin (all from Sigma, St. Louis, Mo.), and 5 ng/ml hEGF (R & D Systems, Minneapolis, Minn.) to establish tight monolayers. On day 2, the medium was changed to MEM (GIBCO/Invitrogen) containing 1% antibiotic/antimycotic solution and 1% L-glutamine (Sigma).
Two different membrane impermeable molecules, [14C]-mannitol (molecular weight: 184 Daltons) and [^3H]-inulin (molecular weight: 5,200 Daltons), served as paracellular tracers. […] Flux assays were performed at 37° C.; basal medium was collected at 0.5-6 hrs after addition of [^14C]-mannitol or [3H]-inulin, and the amount of radioactivity determined using a Beckman LS 5000 scintillation counter. Results were expressed as percentage of total counts for each tracer.
For the permeability assay, the percentage of total counts in the basal medium was determined in four experiments (using different IC/PBS cell donors), and expressed as mean±standard deviation. […]

For test [3], the system named is bladder epithelial cells from IC/PBS patients. The test can be described thus: Stimulation of IC/PBS cell proliferation (3H-thymidine incorporation). As for the experimental part:
(§1) IC/PBS cells were incubated with varying concentrations of two derivatives shown to inhibit APF activity in normal bladder cells—GalGalNAc-TV(D-pipecolic acid) AAVVVA (SEQ ID NO:14) and GalGalNAc-TV (D-proline)AAVVVA (SEQ ID NO:27). Cell proliferation was determined by ^3H-thymidine incorporation; gene expression by quantitative RT-PCR; specific protein expression by Western blot analysis; tight junction formation by confocal immunofluorescence microscopy; and paracellular permeability by ^14C-mannitol and ^3H-inulin flux between confluent cells on Transwell plates. Significance of the difference in mean values between groups was determined by an analysis of variance for each assay.
as §1, with “cells -GalGalNAc-TV-(D-pipecolic acid)-AAVVVA” for “cells—GalGalNAc-TV(D-pipecolic acid) AAVVVA”, “NO:7)” for “NO:14)”, “GalGalNAc-TV-(D-proline)-AAVVVA” for “GalGalNAc-TV (D-proline)AAVVVA”, “RT-PCR;” for “RT-PCR; specific protein expression by Western blot analysis;”
IC/PBS cells produce APF and as a result have a profound decrease in cell proliferation. […]
Cystoscopy was performed under general anesthesia, and 4-mm^2 pieces of transitional epithelium with submucosal bladder tissue were obtained from IC/PBS patients and controls for the growth of primary bladder epithelial cells, as previously described (Keay et al., 2000; Keay et al., 2001; Keay et al., 2004; Keay et al., 2003). […]
Cell proliferation was measured by ^3H-thymidine incorporation into explanted normal human bladder epithelial cells, as previously described (Keay et al., 2000; Keay et al., 2001; Keay et al., 2004; Keay et al., 2003; Saitoh et al., 2001). […]

Entries after “also recorded” stand apart in the source; their conditions may differ.

With `CC(=O)NC1C(O[C@@H]2OC(CO)[C@H](O)C(O)C2O)[C@@H](O)C(CO)O[C@@H]1OC(C)[C@H](N)C(=O)NC(C(=O)N1CCCC1C(=O)NC(C)C(=O)N[C@@H](C)C(=O)NC(C(=O)N[C@H](C(=O)NC(C(=O)N[C@@H](C)C(=O)O)C(C)C)C(C)C)C(C)C)C(C)C` (stereo in doubt) [Derivative 8, GalGalNAc-TV(D-proline)AAVVVA], the “tight junction protein (ZO-1, occludin, claudins) mRNA expression in IC/PBS cells” value is recorded as “significantly (p<0.05) stimulate mRNA expression” in test [1] (listed as D-proline), “stimulation of tight junction protein expression” in test [1] (listed as D-proline APF) and “significantly increased” in test [1] (listed as GalGalNAc-TV-(D-proline)-AAVVVA). Further, the figures for the “inhibition of APF antiproliferative activity” value in test [2] and in test [2] (listed as D-proline APF) were “blocked APF antiproliferative activity” and “inhibit the effect of as-APF on normal bladder epithelial cell proliferation; also recorded: inhibited this activity in nanomolar concentrations in a dose-dependent manner”, respectively. Besides, the “paracellular permeability of IC/PBS cells (14C-mannitol, 3H-inulin)” value was “significantly decrease permeability” in the test with IC/PBS cell monolayers and “normalized; also recorded: significantly decreased paracellular permeability” with IC/PBS cell monolayers (listed as D-proline APF). Further, the “stimulation of IC/PBS cell proliferation” value in test [3] (1 nM twice weekly, by Day 16 (FIG. 55)) is “significantly (p<0.05) stimulated IC/PBS cell proliferation”. Besides, the “stimulation of IC cell proliferation” value in test [3] (0.25 μM of each agent, 9, 16, 23, 30 day treatment (FIG. 41)) is reported as “Optimal stimulation of IC cell proliferation”. The “IC cell proliferation vs untreated controls” value in test [3] (16 and 30 days of treatment (FIG. 48)) was “significantly stimulated”.
